“And” between values parts separate entries of the source, which are not always exact repeats. Identical values can stand only once.
Test system: peripheral blood lymphocytes collected from swine exposed to ASFV
Type: cell-based

Row | Substance | Number of Spots
1 | 1830 (SVMALAKMY) [compound 1830] | 12
2 | 1172 (RCQHHAFSY) [compound 1172] | 12
3 | 1693 (EVYAPYMHY) [compound 1693] | 12
4 | 1024 (SQKLVQLFY) [compound 1024] | 20
5 | 285 (QAMLSSIQYY) [compound 285] | 14
6 | 1159 (MAEIRFLSM) [compound 1159] | 12
7 | 925 (KKQKHVSLL) [compound 925] | 14
8 | 1836 (GKTMPVEFYY) [compound 1836] | 17
9 | 1204 (MQDYSLTF) [compound 1204] | 17
10 | 888 (TMMHYPTFNW) [compound 888] | 12
11 | 1701 (YTGIQSPLF) [compound 1701] | 13
12 | 2222 (ISFSEMLTRYW) [compound 2222] | 12
13 | 1503 (KTDPNFKNL) [compound 1503] | 13
14 | 921 (SVLLRDSGYY) [compound 921] | 14
15 | 2242 (YNLTEAIQY) [compound 2242] | 12
16 | 1528 (KTYTLLTKPY) [compound 1528] | 13
17 | 283 (YTHLNTWRL) [compound 283] | 18
18 | 1631 (FTQITRQTF) [compound 1631] | 12
19 | 2193 (ALNRHITTY) [compound 2193] | 12
20 | 842 (SSMHSGMLY) [compound 842] | 13 and 23
21 | 726 (DMYSVIFNIKY) [compound 726] | 14
22 | 908 (VGYNNVCYY) [compound 908] | 16

Row | Substance | Number of Spots
23 | 1348 (LMSALKWPIEY) [compound 1348] | 12
24 | 1459 (KITSVTEFY) [compound 1459] | 19
25 | 963 (TLINCTYLTL) [compound 963] | 19
26 | 1205 (QDYSLTFLLK) [compound 1205] | 17
27 | 1573 (KVIRAHNFI) [compound 1573] | 12
28 | 1567 (QAQEEWNMIL) [compound 1567] | 13
29 | 1543 (NIYNYDYSF) [compound 1543] | 12
30 | 1107 (RTIPVAWDRF) [compound 1107] | 18
31 | 1880 (FLNAYAHKL) [compound 1880] | 12
32 | 2265 (RYRHFKDWRLI) [compound 2265] | 13
33 | 329 (ASLDYGMNL) [compound 329] | 12
34 | 386 (RTENYNLVCEY) [compound 386] | 110
35 | 1814 (YTIHYSMPY) [compound 1814] | 17
36 | 2141 (RFFKKLLTHF) [compound 2141] | 12
37 | 2183 (PHIFYRPLYR) [compound 2183] | 15
38 | 534 (RYFTFKFAAHL) [compound 534] | 12
39 | 2140 (YFRFFKKLL) [compound 2140] | 16
40 | 647 (GADPTQKDY) [compound 647] | 14
41 | 2241 (YNLTEAIQYF) [compound 2241] | 14
42 | 1006 (KRKKHVEEI) [compound 1006] | 13
43 | 1347 (LMSALKWPI) [compound 1347] | 17
44 | 1468 (ITYLNNMGY) [compound 1468] | 13

Row | Substance | Number of Spots
45 | 2146 (KLLTHFNIYR) [compound 2146] | 16
46 | 1514 (EAAELYFRL) [compound 1514] | 15
47 | 2038 (CGKRNCPLYY) [compound 2038] | 12
48 | 1873 (KLYTAALGVY) [compound 1873] | 12
49 | 607 (NINCFNYCI) [compound 607] | 12
50 | 1759 (VQLANSSVYY) [compound 1759] | 15
51 | 1288 (HFNAHFKPY) [compound 1288] | 16
52 | 2181 (YPHIFYRPLY) [compound 2181] | 12
53 | 962 (TTLINCTY) [compound 962] | 12
54 | 297 (LRHNFTKAIHY) [compound 297] | 16
55 | 309 (FTKAIHYFYKR) [compound 309] | 12
56 | 1501 (ALDLSLIGFY) [compound 1501] | 14
57 | 1227 (ETYARLSSY) [compound 1227] | 12
58 | 321 (KRHKNHLY) [compound 321] | 14
59 | 467 (QAYALEYAM) [compound 467] | 17
60 | 1033 (SVSPVFTSGY) [compound 1033] | 16
61 | 2185 (HIFYRPLYRY) [compound 2185] | 15
62 | 756 (FTDNLCFMM) [compound 756] | 19
63 | 889 (MMHYPTFNW) [compound 889] | 16
64 | 2037 (MCGKRNCPLY) [compound 2037] | 12
65 | 1019 (TQPLNPFPL) [compound 1019] | 21
66 | 954 (NNFTATCII) [compound 954] | 15

Row | Substance | Number of Spots
67 | 1287 (VHFNAHFKPY) [compound 1287] | 14
68 | 1828 (RSQTECGPY) [compound 1828] | 14
69 | 2225 (SFSEMLTRYW) [compound 2225] | 12
70 | 275 (ATYNHRKILIY) [compound 275] | 21
71 | 1127 (RALKMYEDYY) [compound 1127] | 12
72 | 1345 (RVRFSLIRV) [compound 1345] | 16
73 | 857 (AVNSTGLIGY) [compound 857] | 17
74 | 625 (SVFMWICIY) [compound 625] | 15
75 | 1736 (VTQRNQNYF) [compound 1736] | 13
76 | 1295 (SQMGAHGQL) [compound 1295] | 17
77 | 1296 (HGQLQTFPR) [compound 1296] | 16
78 | 2175 (RLYPHIFYR) [compound 2175] | 16
79 | 369 (KHTLQWLGLY) [compound 369] | 16
80 | 849 (FLKKNIYLY) [compound 849] | 13
81 | 449 (HTIYQSYSL) [compound 449] | 19
82 | 1279 (YPYYIYKIF) [compound 1279] | 12
83 | 1111 (RTDFVWVADL) [compound 1111] | 13
84 | 1265 (INRNYYPYY) [compound 1265] | 12
85 | 880 (SSIVFQHEM) [compound 880] | 66
86 | 1556 (QVVFHAGSLY) [compound 1556] | 13
87 | 1413 (ISSMSVSTFW) [compound 1413] | 12
88 | 725 (SDMYSVIFNI) [compound 725] | 15

Row | Substance | Number of Spots
89 | 1941 (AIEEEDIQF) [compound 1941] | 12
90 | 1196 (KEMQDYSLTF) [compound 1196] | 17
91 | 1120 (SLPDVSTLPY) [compound 1120] | 13
92 | 865 (RRVHASYPGY) [compound 865] | 15
93 | 641 (GRSLNMLSLI) [compound 641] | 16
94 | 784 (KSKQASISSI) [compound 784] | 12
95 | 1633 (ITRQTFMDI) [compound 1633] | 14
96 | 278 (MRIEIFWEL) [compound 278] | 15
97 | 1488 (STQFMIQYF) [compound 1488] | 13
98 | 1461 (YTLLSPLQSY) [compound 1461] | 13 and 17
99 | 931 (SIDYWVSFNK) [compound 931] | 12
100 | 1986 (KINQRSFSF) [compound 1986] | 13
101 | 328 (KNHLYWRV) [compound 328] | 13
102 | 2134 (KNYFRFFKK) [compound 2134] | 16
103 | 279 (KTDLLNNEF) [compound 279] | 17
104 | 557 (LIEFLTGFF) [compound 557] | 16
105 | 1472 (KVDLPYHLM) [compound 1472] | 16
106 | 836 (RSEWASSNTF) [compound 836] | 31
107 | 1912 (KQFEMFNMVY) [compound 1912] | 12
108 | 1630 (AMLEFKKFF) [compound 1630] | 12
109 | 241 (MVYNFNTLY) [compound 241] | 16
110 | 64 (KVNNSMPLI) [compound 64] | 32

Row | Substance | Number of Spots
111 | 1499 (AVNLLRQTF) [compound 1499] | 14
112 | 1840 (SLANHTVKYY) [compound 1840] | 14
113 | 70 (KSMPLIVENSY) [compound 70] | 35
114 | 769 (RLNAPNLKY) [compound 769] | 13
115 | 869 (GLAALVSPY) [compound 869] | 13
116 | 1228 (SSYNRSLLH) [compound 1228] | 15
117 | 872 (RVDMNRFFQF) [compound 872] | 15 and 18
118 | 1507 (ATVSAIELEY) [compound 1507] | 13
119 | 2166 (KIDDFIRLY) [compound 2166] | 13
120 | 1923 (RISSELISY) [compound 1923] | 13
121 | 1649 (TLMDQPTY) [compound 1649] | 18
122 | 1955 (SSAELYRKM) [compound 1955] | 14
123 | 839 (ASSSMHSGM) [compound 839] | 16
124 | 1129 (IMDDLVEEY) [compound 1129] | 14
125 | 69 (KVNKSMPLI) [compound 69] | 255
126 | 1852 (HTLIISPEF) [compound 1852] | 15
127 | 1628 (SAMLEFKKF) [compound 1628] | 12
128 | 635 (IRGRSLNMLSL) [compound 635] | 12
129 | 2137 (KNYFRFFKKL) [compound 2137] | 12
130 | 2142 (RFFKKLLTH) [compound 2142] | 12
131 | 1372 (NVSRAREFY) [compound 1372] | 12

Source: patent publication US20220105170A1 (priority 2019, published 2022)
